Laboratory results as given in paper PMC8050214 (Scientific Reports, 2021).
pEC50: −log10 of the molar value.

Assays:
[1] = biological target: T1, hD2LR (human dopamine D2 receptor, long splice variant) (Homo sapiens, UniProt P14416); assay: BRET G protein (GαoA) activation, Gβγ-Venus / masGRK3ct-NLuc release; assay type: cell-based
T1 construct: gene DRD2; full-length long isoform, stably expressed in Flp-In HEK293 cells (G protein BRET assay); C351I G alpha subunits co-transfected as sensors; hD2LR-NLuc fusion with GRK2-Venus in the GRK2 recruitment assay (SCH23390 row)

[2] = biological target: T1, hD2LR (human dopamine D2 receptor, long splice variant); assay: Schild analysis, BRET GRK2 recruitment (hD2LR-NLuc / GRK2-Venus); assay type: cell-based; conditions: read-out: pA2 (converted)

Row | SMILES | pEC50 [1] | Kb [2]
1 | CC(C)C[C@H]1C(=O)N2CCC[C@H]2[C@]2(O)O[C@](NC(=O)[C@@H]3C=C4c5cccc6[nH]c(Br)c(c56)C[C@H]4N(C)C3)(C(C)C)C(=O)N12 [Bromocriptine] | 7.84 | –
2 | C=CCN1C[C@H](C(=O)N(CCCN(C)C)C(=O)NCC)C[C@@H]2c3cccc4[nH]cc(c34)C[C@H]21 [Cabergoline] | 8.80 | –
3 | Oc1c(CN2CCN(c3ccccn3)CC2)cc(Cl)c2cccnc12 [MLS1547] | 6.68 | –
4 | CCCN(CCC)CCc1cccc2c1CC(=O)N2 [Ropinirole] | 8.55 | –
5 | CN1CCc2cc(Cl)c(O)cc2[C@@H](c2ccccc2)C1 [SCH23390] | – | 0.525 µM
6 | CCN(CC)C(=O)N[C@H]1C[C@@H]2c3cccc4[nH]cc(c34)C[C@H]2N(C)C1 [Terguride] | 8.36 | –
7 | Clc1cccc(C2CCN(CCCOc3ccc4scnc4c3)CC2)c1Cl [UNC9994] | 6.55 | –
